Results taken from PMC10897476, “Pyridylpiperazine efflux pump inhibitor boosts in vivo antibiotic efficacy against K. pneumoniae” (EMBO Molecular Medicine, 2023).
“And” between values parts separate entries of the source, which are not always exact repeats. Equal entries are not always repeated. Where two headings read alike, the source gives them in different places. Marks after values point to notes of the source that are not given here.

Assays:
Format in all cases: cell-based, Klebsiella pneumoniae
[1] = tested on: K. pneumoniae AcrB^V448E; assay: MIC of antibiotics with and without EPI (REMA), AcrB V448E mutant; conditions: for Minimum Inhibitory Concentration: K. pneumoniae AcrB^V448E
In short: (§1)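 K. pneumoniae ATCC 43816 carrying single chromosomal acrB or ramR mutations introduced by allelic exchange, diluted to OD600 = 0.001 in CAMHB with EPI at final 100 µM. Incubated 37 °C up to 20 h; viability by resazurin fluorescence (Ex 530/Em 590 nm).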

[2] = tested on: K. pneumoniae RamR^mut (K124*stop); assay: MIC of antibiotics with and without EPI (REMA), RamR mutant; conditions: for Minimum Inhibitory Concentration: K. pneumoniae RamR^mut
In short: as §1

[3] = tested on: K. pneumoniae ATCC 43816 (WT); assay: Checkerboard assay levofloxacin x EPI, WT strain; conditions: for checkerboard growth readout: ATCC43816 WT, EPI 0 µM; for MIC: Klebsiella pneumoniae; for Median REMA values (percentage resazurin turnover): median n=3; for Median REMA values (percentage resazurin turnover) / percentage resazurin turnover: listed as Lev; for percentage resazurin turnover: individual replicates
Procedure: (§2) MIC experiments were carried out according to the CLSI guidelines (CLSI [2023]). Overnight cultures were diluted to an OD600 = 0.001 in CAMHB followed by addition of efflux pump inhibitors (EPIs) at a final concentration of 100 µM. […] Plates were incubated at 37 °C for up to 20 h. Bacterial viability was evaluated using the resazurin microtitre assay (REMA) and measured by fluorescence using a Tecan Spaert multimode plate reader (Ex: 530 nm Em: 590 nm). MICs were defined as the concentration that prevented 90% of resazurin turnover compared to the non-treated bacteria.
(§3) Bacterial suspensions, incubation and plate readouts were carried out as described above.

[4] = tested on: K. pneumoniae AcrB^V448E; assay: Checkerboard assay levofloxacin x EPI, AcrB V448E mutant; conditions: for checkerboard growth readout: ATCC43816 AcrBV448E, EPI 0 µM; for percentage resazurin turnover: listed as Lev
Procedure: as §2, §3

[5] = tested on: K. pneumoniae RamR^mut (K124*stop); assay: Checkerboard assay levofloxacin x EPI, RamR mutant; conditions: for checkerboard growth readout: ATCC43816 ramRmut, EPI 0 µM; for MIC: Klebsiella pneumoniae
Procedure: as §2, §3

[6] = tested on: K. pneumoniae AcrB^V448E RamR^mut; assay: Checkerboard assay levofloxacin x EPI, double mutant; conditions: ATCC43816 AcrBV448E ramRmut, EPI 0 µM
Procedure: as §2, §3

[7] = Klebsiella pneumoniae, read-out: Minimum Inhibitory Concentration
[8] = Lev 0.24 ng/mL, BDM91288 0.00 uM
[9] = Lev 0.49 ng/mL, BDM91288 0.00 uM
[10] = Lev 0.98 ng/mL, BDM91288 0.00 uM
[11] = Lev 1.95 ng/mL, BDM91288 0.00 uM
[12] = Lev 3.91 ng/mL, BDM91288 0.00 uM
[13] = Lev 7.81 ng/mL, BDM91288 0.00 uM
[14] = Lev 15.63 ng/mL, BDM91288 0.00 uM
[15] = Lev 31.25 ng/mL, BDM91288 0.00 uM
[16] = Lev 62.50 ng/mL, BDM91288 0.00 uM
[17] = Lev 500.00 ng/mL, BDM91288 0.00 uM
[18] = Lev 1000 ng/mL, BDM91288 0.00 uM

Compound: C[C@H]1COc2c(N3CCN(C)CC3)c(F)cc3c(=O)c(C(=O)O)cn1c23 [Levofloxacin]
- Minimum Inhibitory Concentration ([1]; + 100 µM 1'): 0.03 mg/L
- Minimum Inhibitory Concentration ([1]; + 100 µM 5): 0.03 mg/L
- Minimum Inhibitory Concentration ([1]; + 100 µM PAβN): 0.02^# mg/L
- MIC [1, 7]: 0.04 µg/mL
- Minimum Inhibitory Concentration ([2]; + 100 µM 1'): 0.08^# mg/L
- Minimum Inhibitory Concentration ([2]; + 100 µM 5): 0.05^# mg/L
- Minimum Inhibitory Concentration ([2]; + 100 µM PAβN): 0.04^# mg/L
- MIC [2, 7]: 0.64 µg/mL
- checkerboard growth readout ([3]; levofloxacin 4 ng/mL): 114 and 99
- checkerboard growth readout ([3]; levofloxacin 8 ng/mL): 102 and 104
- checkerboard growth readout ([3]; levofloxacin 15.625 ng/mL): 112 and 95
- checkerboard growth readout ([3]; levofloxacin 31.25 ng/mL): 88 and 69
- MIC ([3]; ATCC43816, read-out: levofloxacin MIC (checkerboard)): 0.0625 µg/mL
- MIC ([3]; ATCC43816, read-out: levofloxacin boosted MIC (checkerboard)): 0.016 µg/mL
- Median REMA values (percentage resazurin turnover) ([3]; Lev 0.24 ng/mL + EPI 0.00 uM): 82% and 111%
- Median REMA values (percentage resazurin turnover) ([3]; Lev 0.49 ng/mL + EPI 0.00 uM): 103% and 87%
- Median REMA values (percentage resazurin turnover) ([3]; Lev 0.98 ng/mL + EPI 0.00 uM): 102% and 101%
- percentage resazurin turnover ([3]; Lev 1.95 ng/mL + EPI 0.00 uM): 92% and 97%
- Median REMA values (percentage resazurin turnover) ([3]; Lev 1.95 ng/mL + EPI 0.00 uM): 101% and 92%
- percentage resazurin turnover ([3]; Lev 3.91 ng/mL + EPI 0.00 uM): 128% and 114% and 108%
- Median REMA values (percentage resazurin turnover) ([3]; Lev 3.91 ng/mL + EPI 0.00 uM): 99% and 114%
- percentage resazurin turnover ([3]; Lev 7.81 ng/mL + EPI 0.00 uM): 102% and 106% and 72%
- Median REMA values (percentage resazurin turnover) ([3]; Lev 7.81 ng/mL + EPI 0.00 uM): 104% and 102%
- percentage resazurin turnover ([3]; Lev 15.63 ng/mL + EPI 0.00 uM): 100% and 112% and 143%
- Median REMA values (percentage resazurin turnover) ([3]; Lev 15.63 ng/mL + EPI 0.00 uM): 95% and 112%
- percentage resazurin turnover ([3]; Lev 31.25 ng/mL + EPI 0.00 uM): 88% and 76% and 139%
- Median REMA values (percentage resazurin turnover) ([3]; Lev 31.25 ng/mL + EPI 0.00 uM): 69% and 88%
- percentage resazurin turnover ([3]; Lev 62.50 ng/mL + EPI 0.00 uM): -0.208% and 0.0384% and 0.176%
- Median REMA values (percentage resazurin turnover) ([3]; Lev 62.50 ng/mL + EPI 0.00 uM): -0.588% and 0.0384%
- percentage resazurin turnover ([3]; Lev 500.00 ng/mL + EPI 0.00 uM): -0.171% and 0.0154% and 0.238%
- Median REMA values (percentage resazurin turnover) ([3]; Lev 500.00 ng/mL + EPI 0.00 uM): -0.604% and 0.0154%
- percentage resazurin turnover ([3]; Lev 1000 ng/mL + EPI 0.00 uM): -0.203% and 0.204% and -0.0468%
- Median REMA values (percentage resazurin turnover) ([3]; Lev 1000 ng/mL + EPI 0.00 uM): -0.268% and -0.0468%
- checkerboard growth readout ([4]; levofloxacin 4 ng/mL): 107 and 101
- checkerboard growth readout ([4]; levofloxacin 8 ng/mL): 111 and 91
- checkerboard growth readout ([4]; levofloxacin 15.625 ng/mL): 117 and 89
- checkerboard growth readout ([4]; levofloxacin 31.25 ng/mL): 91 and 81
- Median REMA values [4, 8]: 88%
- percentage resazurin turnover [4, 8]: 93% and 88% and 53%
- Median REMA values ([4]; Lev 0.24 ng/mL, PABN 0.00 uM): 81%
- percentage resazurin turnover ([4]; Lev 0.24 ng/mL, PABN 0.00 uM): 88% and 81% and 56%
- Median REMA values [4, 9]: 105%
- percentage resazurin turnover [4, 9]: 102% and 108% and 105%
- Median REMA values ([4]; Lev 0.49 ng/mL, PABN 0.00 uM): 70%
- percentage resazurin turnover ([4]; Lev 0.49 ng/mL, PABN 0.00 uM): 68% and 101% and 70%
- Median REMA values [4, 10]: 98%
- percentage resazurin turnover [4, 10]: 98% and 105% and 79%
- Median REMA values ([4]; Lev 0.98 ng/mL, PABN 0.00 uM): 106%
- percentage resazurin turnover ([4]; Lev 0.98 ng/mL, PABN 0.00 uM): 106% and 107% and 72%
- Median REMA values [4, 11]: 108%
- percentage resazurin turnover [4, 11]: 108% and 109% and 104%
- Median REMA values ([4]; Lev 1.95 ng/mL, PABN 0.00 uM): 104%
- percentage resazurin turnover ([4]; Lev 1.95 ng/mL, PABN 0.00 uM): 104% and 118% and 78%
- Median REMA values [4, 12]: 107%
- percentage resazurin turnover [4, 12]: 107% and 111% and 81%
- Median REMA values ([4]; Lev 3.91 ng/mL, PABN 0.00 uM): 101%
- percentage resazurin turnover ([4]; Lev 3.91 ng/mL, PABN 0.00 uM): 101% and 111% and 73%
- Median REMA values [4, 13]: 111%
- percentage resazurin turnover [4, 13]: 111% and 76%
- Median REMA values ([4]; Lev 7.81 ng/mL, PABN 0.00 uM): 91%
- percentage resazurin turnover ([4]; Lev 7.81 ng/mL, PABN 0.00 uM): 91% and 110% and 79%
- Median REMA values [4, 14]: 117%
- percentage resazurin turnover [4, 14]: 117% and 105%
- Median REMA values ([4]; Lev 15.63 ng/mL, PABN 0.00 uM): 89%
- percentage resazurin turnover ([4]; Lev 15.63 ng/mL, PABN 0.00 uM): 119% and 89% and 72%
- Median REMA values [4, 15]: 91%
- percentage resazurin turnover [4, 15]: 91% and 87% and 102%
- Median REMA values ([4]; Lev 31.25 ng/mL, PABN 0.00 uM): 81%
- percentage resazurin turnover ([4]; Lev 31.25 ng/mL, PABN 0.00 uM): 81% and 70%
- Median REMA values [4, 16]: -0.206%
- percentage resazurin turnover [4, 16]: -0.206% and -0.287% and -0.155%
- Median REMA values ([4]; Lev 62.50 ng/mL, PABN 0.00 uM): -0.817%
- percentage resazurin turnover ([4]; Lev 62.50 ng/mL, PABN 0.00 uM): -0.685% and -0.817% and -0.819%
- Median REMA values [4, 17]: -0.289%
- percentage resazurin turnover [4, 17]: -0.289% and -0.371% and 0.114%
- Median REMA values ([4]; Lev 500.00 ng/mL, PABN 0.00 uM): -0.75%
- percentage resazurin turnover ([4]; Lev 500.00 ng/mL, PABN 0.00 uM): -0.676% and -1% and -0.75%
- Median REMA values [4, 18]: 0.0503%
- percentage resazurin turnover [4, 18]: 0.0503% and -0.121% and 0.102%
- Median REMA values ([4]; Lev 1000 ng/mL, PABN 0.00 uM): -0.383%
- percentage resazurin turnover ([4]; Lev 1000 ng/mL, PABN 0.00 uM): -0.346% and -0.646% and -0.383%
- checkerboard growth readout ([5]; levofloxacin 4 ng/mL): 106 and 109
- checkerboard growth readout ([5]; levofloxacin 8 ng/mL): 110 and 118
- checkerboard growth readout ([5]; levofloxacin 15.625 ng/mL): 111 and 109
- checkerboard growth readout ([5]; levofloxacin 62.5 ng/mL): 111 and 123
- checkerboard growth readout ([5]; levofloxacin 250 ng/mL): 61 and 91
- MIC ([5]; read-out: levofloxacin MIC (checkerboard)): 0.5 µg/mL
- MIC ([5]; read-out: levofloxacin boosted MIC (checkerboard)): 0.016 µg/mL
- checkerboard growth readout ([6]; levofloxacin 4 ng/mL): 105 and 97
- checkerboard growth readout ([6]; levofloxacin 8 ng/mL): 113 and 94
- checkerboard growth readout ([6]; levofloxacin 15.625 ng/mL): 114 and 99
- checkerboard growth readout ([6]; levofloxacin 31.25 ng/mL): 121 and 95
- checkerboard growth readout ([6]; levofloxacin 62.5 ng/mL): 141 and 104
- checkerboard growth readout ([6]; levofloxacin 250 ng/mL): 148 and 137
- checkerboard growth readout ([6]; levofloxacin 500 ng/mL): 131 and 124
